Results as given in US8883792B2, “Substituted isoquinoline derivative” (D. Western Therapeutics Institute, Inc., priority 2010, dated 2014).
Where a name gives a salt, the structure may show the parent alone.

The compounds below were run on rabbits (New Zealand White) (assay: Ocular hypotensive effect in rabbits). Details: male New Zealand White rabbits, 0.04 mL eye drop, concentration of 1% (w/v) or lower, maximum ocular hypotensive rate vs vehicle-treated contralateral eye.
Type: in vivo, rabbit
Procedure: The compound of the present invention was administered to rabbits (New Zealand White, sex: male, 3 to 6 per group) and evaluated for its ocular hypotensive effect.
Each test compound was dissolved in a vehicle 1 (1.04 g of sodium dihydrogen phosphate dihydrate and 0.5 g of sodium chloride dissolved in purified water and then adjusted to pH 7.0 with sodium hydroxide to make the total amount to 100 mL) or a vehicle 2 (2% (w/v) aqueous boric acid solution) to prepare a test compound solution with a predetermined concentration.
The intraocular pressures of the rabbits were measured using Tiolat TonoVet handheld tonometer immediately before administration of test compound. The test compound solution and the vehicle were dropped at a volume of 0.04 mL to one eye and the contralateral eye, respectively, and the intraocular pressures were measured over time in the same way as above. The rate of the intraocular pressure of the eye receiving the test compound solution to that of the eye receiving the vehicle was calculated as an ocular hypotensive rate.
In the case of `C[C@H](CNCCc1ccccc1Cl)NS(=O)(=O)c1ccc2cnccc2c1` [Example 38, (R)—N-{1-(2-chlorophenethylamino)propan-2-yl}isoquinoline-6-sulfonamide dihydrochloride], the Ocular hypotensive activity was “++ (maximum ocular hypotensive rate of 15% or more)”. With `C[C@H](CNCCc1ccc(Cl)cc1)NS(=O)(=O)c1ccc2cnccc2c1` [Example 39, (R)—N-{1-(4-chlorophenethylamino)propan-2-yl}isoquinoline-6-sulfonamide dihydrochloride] the Ocular hypotensive activity was “++ (maximum ocular hypotensive rate of 15% or more)”. For `C[C@H](CNCCc1cccs1)NS(=O)(=O)c1ccc2cnccc2c1.Cl` [Example 40, (R)—N-[1-{2-(thiophen-2-yl)ethylamino}propan-2-yl]isoquinoline-6-sulfonamide hydrochloride], the Ocular hypotensive activity was “++ (maximum ocular hypotensive rate of 15% or more)”. In the case of `C[C@H](CNCCc1ccsc1)NS(=O)(=O)c1ccc2cnccc2c1.Cl` [Example 41, (R)—N-[1-{2-(thiophen-3-yl)ethylamino}propan-2-yl]isoquinoline-6-sulfonamide hydrochloride], the Ocular hypotensive activity was “++ (maximum ocular hypotensive rate of 15% or more)”. In the case of `C[C@H](CNCCc1ccncc1)NS(=O)(=O)c1ccc2cnccc2c1` [Example 42, (R)—N-[1-{2-(pyridin-4-yl)ethylamino}propan-2-yl]isoquinoline-6-sulfonamide trihydrochloride], the Ocular hypotensive activity was “+ (maximum ocular hypotensive rate of 5% or more and less than 15%)”. In the case of `C[C@H](CNC/C=C/c1ccc(Br)cc1)NS(=O)(=O)c1ccc2cnccc2c1` [Example 43, (R, E)-N-[1-{3-(4-bromophenyl)allylamino}propan-2-yl]isoquinoline-6-sulfonamide dihydrochloride], the Ocular hypotensive activity was “++ (maximum ocular hypotensive rate of 15% or more)”. For `C[C@H](CNC/C=C/c1ccccc1)NS(=O)(=O)c1ccc2cnccc2c1` [Example 44, (R, E)-N-{1-(cinnamylamino)propan-2-yl}isoquinoline-6-sulfonamide dihydrochloride], the Ocular hypotensive activity was “+ (maximum ocular hypotensive rate of 5% or more and less than 15%)”. In the case of `C[C@H](CNCCOc1ccccc1)NS(=O)(=O)c1ccc2cnccc2c1` [Example 45, (R)—N-{1-(2-phenoxyethylamino)propan-2-yl}isoquinoline-6-sulfonamide dihydrochloride], the Ocular hypotensive activity was “++ (maximum ocular hypotensive rate of 15% or more)”. In the case of `C[C@H](CNCCc1cccc2ccccc12)NS(=O)(=O)c1ccc2cnccc2c1.Cl` [Example 46], the Ocular hypotensive activity was “++ (maximum ocular hypotensive rate of 15% or more)”. `C#CCNC[C@@H](C)NS(=O)(=O)c1ccc2cnccc2c1` [Example 47, (R)—N-{1-(prop-2-yn-1-ylamino)propan-2-yl}isoquinoline-6-sulfonamide dihydrochloride] was tested, and the Ocular hypotensive activity was “++ (maximum ocular hypotensive rate of 15% or more)”. For `CO[C@H](CNC[C@@H](C)NS(=O)(=O)c1ccc2cnccc2c1)c1ccccc1.Cl` [Example 48, N—[(R)-1-{(S)-2-methoxy-2-phenylethylamino}propan-2-yl]isoquinoline-6-sulfonamide hydrochloride], the Ocular hypotensive activity was “++ (maximum ocular hypotensive rate of 15% or more)”. `C[C@H](CNCCc1cccnc1)NS(=O)(=O)c1ccc2cnccc2c1.Cl` [Example 49, (R)—N-[1-{2-(pyridin-3-yl)ethylamino}propan-2-yl]isoquinoline-6-sulfonamide hydrochloride] was tested, and the Ocular hypotensive activity was “++ (maximum ocular hypotensive rate of 15% or more)”. In the case of `C[C@H](CNCC[C@@H](O)c1ccccc1)NS(=O)(=O)c1ccc2cnccc2c1.Cl` [Example 50, N—[(R)-1-{(R)-3-hydroxy-3-phenylpropylamino}propan-2-yl]isoquinoline-6-sulfonamide hydrochloride], the Ocular hypotensive activity was “+ (maximum ocular hypotensive rate of 5% or more and less than 15%)”. For `C[C@H](CNCCc1cccc(F)c1)NS(=O)(=O)c1ccc2cnccc2c1.Cl` [Example 52, (R)—N-{1-(3-fluorophenethylamino)propan-2-yl}isoquinoline-6-sulfonamide hydrochloride], the Ocular hypotensive activity was “++ (maximum ocular hypotensive rate of 15% or more)”. In the case of `C[C@H](CNCCc1cccc(Cl)c1)NS(=O)(=O)c1ccc2cnccc2c1` [Example 54, (R)—N-{1-(3-chlorophenethylamino)propan-2-yl}isoquinoline-6-sulfonamide hydrochloride], the Ocular hypotensive activity was “++ (maximum ocular hypotensive rate of 15% or more)”. For `C[C@H](CNCCc1ccc(Br)cc1)NS(=O)(=O)c1ccc2cnccc2c1.Cl` [Example 55, (R)—N-{1-(4-bromophenethylamino)propan-2-yl}isoquinoline-6-sulfonamide hydrochloride], the Ocular hypotensive activity was “++ (maximum ocular hypotensive rate of 15% or more)”. For `Cc1ccccc1CCNC[C@@H](C)NS(=O)(=O)c1ccc2cnccc2c1.Cl` [Example 56, (R)—N-{1-(2-methylphenethylamino)propan-2-yl}isoquinoline-6-sulfonamide hydrochloride], the Ocular hypotensive activity was “++ (maximum ocular hypotensive rate of 15% or more)”. `Cc1cccc(CCNC[C@@H](C)NS(=O)(=O)c2ccc3cnccc3c2)c1.Cl` [Example 57, (R)—N-{1-(3-methylphenethylamino)propan-2-yl}isoquinoline-6-sulfonamide hydrochloride] was tested, and the Ocular hypotensive activity was “++ (maximum ocular hypotensive rate of 15% or more)”. In the case of `C[C@H](CNCCc1ccc([N+](=O)[O-])cc1)NS(=O)(=O)c1ccc2cnccc2c1.Cl` [Example 59, (R)—N-{1-(4-nitrophenethylamino)propan-2-yl}isoquinoline-6-sulfonamide hydrochloride], the Ocular hypotensive activity was “++ (maximum ocular hypotensive rate of 15% or more)”. With `C[C@H](CNCCc1ccc(C(F)(F)F)cc1)NS(=O)(=O)c1ccc2cnccc2c1.Cl` [Example 60, (R)—N-{1-(4-trifluoromethylphenethylamino)propan-2-yl}isoquinoline-6-sulfonamide hydrochloride] the Ocular hypotensive activity was “++ (maximum ocular hypotensive rate of 15% or more)”. `C[C@H](CNC1CCCCC1)NS(=O)(=O)c1ccc2cnccc2c1.Cl` [Example 61, (R)—N-{1-(cyclohexylamino)propan-2-yl}isoquinoline-6-sulfonamide hydrochloride] was tested, and the Ocular hypotensive activity was “++ (maximum ocular hypotensive rate of 15% or more)”. For `C[C@H](CNC1Cc2ccccc2C1)NS(=O)(=O)c1ccc2cnccc2c1.Cl` [Example 62, (R)—N-{1-(2,3-dihydro-1H-inden-2-ylamino)propan-2-yl}isoquinoline-6-sulfonamide hydrochloride], the Ocular hypotensive activity was “++ (maximum ocular hypotensive rate of 15% or more)”. With `C[C@H](CNCCc1c[nH]c2ccc(Cl)cc12)NS(=O)(=O)c1ccc2cnccc2c1.Cl` [Example 63, (R)—N-[1-{2-(5-chloro-1H-indol-3-yl)ethylamino}propan-2-yl]isoquinoline-6-sulfonamide hydrochloride] the Ocular hypotensive activity was “+ (maximum ocular hypotensive rate of 5% or more and less than 15%)”. In the case of `C[C@H](CNCCc1cn(C)c2ccccc12)NS(=O)(=O)c1ccc2cnccc2c1.Cl` [Example 64, (R)—N-[1-{2-(1-methyl-1H-indol-3-yl)ethylamino}propan-2-yl]isoquinoline-6-sulfonamide hydrochloride], the Ocular hypotensive activity was “++ (maximum ocular hypotensive rate of 15% or more)”. In the case of `C[C@H](CNCCc1ccnc2ccccc12)NS(=O)(=O)c1ccc2cnccc2c1.Cl` [Example 65], the Ocular hypotensive activity was “+ (maximum ocular hypotensive rate of 5% or more and less than 15%)”. In the case of `C[C@H](CNCCc1ccco1)NS(=O)(=O)c1ccc2cnccc2c1.Cl` [Example 66, (R)—N-[1-{2-(furan-2-yl)ethylamino}propan-2-yl]isoquinoline-6-sulfonamide hydrochloride], the Ocular hypotensive activity was “++ (maximum ocular hypotensive rate of 15% or more)”. With `C[C@H](CNCCc1ccoc1)NS(=O)(=O)c1ccc2cnccc2c1.Cl` [Example 67, (R)—N-[1-{2-(furan-3-yl)ethylamino}propan-2-yl]isoquinoline-6-sulfonamide hydrochloride] the Ocular hypotensive activity was “++ (maximum ocular hypotensive rate of 15% or more)”. With `C[C@H](CNCCn1cncn1)NS(=O)(=O)c1ccc2cnccc2c1.Cl` [Example 68, (R)—N-[1-{2-(1H-1,2,4-triazol-1-yl)ethylamino}propan-2-yl]isoquinoline-6-sulfonamide hydrochloride] the Ocular hypotensive activity was “+ (maximum ocular hypotensive rate of 5% or more and less than 15%)”. With `C[C@H](CNCCc1ccc(N)cc1)NS(=O)(=O)c1ccc2cnccc2c1.Cl.Cl.Cl` [Example 69, (R)—N-{1-(4-aminophenethylamino)propan-2-yl}isoquinoline-6-sulfonamide trihydrochloride] the Ocular hypotensive activity was “++ (maximum ocular hypotensive rate of 15% or more)”. For `C[C@H](CNCCc1ccc(N(C)C)cc1)NS(=O)(=O)c1ccc2cnccc2c1.Cl` [Example 71, (R)—N-{1-(4-dimethylaminophenethylamino)propan-2-yl}isoquinoline-6-sulfonamide hydrochloride], the Ocular hypotensive activity was “++ (maximum ocular hypotensive rate of 15% or more)”. `C[C@H](CNCCc1ccc(NC(N)=O)cc1)NS(=O)(=O)c1ccc2cnccc2c1.Cl` [Example 72, (R)—N-{1-(4-ureidophenethylamino)propan-2-yl}isoquinoline-6-sulfonamide hydrochloride] was tested, and the Ocular hypotensive activity was “+ (maximum ocular hypotensive rate of 5% or more and less than 15%)”.
